Data taken from PubChem BioAssay AID248 (DTP/NCI, 2004).
Toxic doses and inconclusive results are not listed. Cut-off read from the data, not from the text of the source: active = T/C of 150% or more; inactive = T/C below 125%.

System: L1210 leukemia ip in BDF1 mice, survival T/C
Test: NCI In Vivo Anticancer Drug Screen. Data for tumor model L1210 Leukemia (intraperitoneal) in B6D2F1 (BDF1) mice
Conditions: endpoint: mean survival time, higher = longer survival
How it was run: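 Ratio derived from survival: compound-dosed mice over vehicle-dosed mice, all bearing a transplantable tumor.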

[1] = dose: 100.0 mg/kg/injection, schedule: Q04DX002 (ip), vehicle: saline
[2] = dose: 150.0 mg/kg/injection, schedule: Q01DX009 (ip), vehicle: saline
[3] = dose: 25.0 mg/kg/injection, schedule: Q01DX009 (ip), vehicle: saline
[4] = dose: 50.0 mg/kg/injection, schedule: Q01DX009 (ip), vehicle: saline
[5] = dose: 100.0 mg/kg/injection, schedule: Q01DX009 (ip), vehicle: saline
[6] = dose: 100.0 mg/kg/injection, schedule: Q01DX009 (ip), vehicle: saline with Tween-80

Measured: T/C

C[C@H](OC(=O)CCl)[C@@H](C)OC(=O)CCl
inactive: dose: 50.0 mg/kg/injection, schedule: Q01DX001 (sc), vehicle: carboxymethylcellulose (CMC) 109 % of control | dose: 100.0 mg/kg/injection, schedule: Q01DX001 (sc), vehicle: carboxymethylcellulose (CMC) 88 % of control

COC(=O)CC1CC(C=O)C1 (stereo not drawn)
inactive: [1] 105 % of control | dose: 200.0 mg/kg/injection, schedule: Q04DX002 (ip), vehicle: saline 102 % of control | dose: 400.0 mg/kg/injection, schedule: Q04DX002 (ip), vehicle: saline 105 % of control

CC1CCOC(=O)CCCCC1=O (stereo not drawn)
inactive: dose: 100.0 mg/kg/injection, schedule: Q01DX001 (ip), vehicle: saline 101 % of control | dose: 200.0 mg/kg/injection, schedule: Q01DX001 (ip), vehicle: saline 90 % of control | dose: 400.0 mg/kg/injection, schedule: Q01DX001 (ip), vehicle: saline 109 % of control

O=C(Cc1ccccn1)NCCc1ccccc1
inactive: dose: 75.0 mg/kg/injection, schedule: Q01DX009 (ip), vehicle: saline 93 % of control | dose: 75.0 mg/kg/injection, schedule: Q04DX003 (ip), vehicle: saline 108 % of control | [2] 94 % of control | dose: 150.0 mg/kg/injection, schedule: Q04DX003 (ip), vehicle: saline 108 % of control | dose: 300.0 mg/kg/injection, schedule: Q04DX003 (ip), vehicle: saline 90 % of control

CCOC(=O)CNC(=O)CNC(=O)CCCCSc1ncnc2nc[nH]c12
inactive: [3] 110 % of control | [4] 98 % of control | dose: 50.0 mg/kg/injection, schedule: Q01DX009 (oral), vehicle: saline 104 % of control | [5] 103 % of control | dose: 100.0 mg/kg/injection, schedule: Q01DX009 (oral), vehicle: saline 90 % of control | dose: 200.0 mg/kg/injection, schedule: Q01DX009 (ip), vehicle: saline 101 % of control | dose: 200.0 mg/kg/injection, schedule: Q01DX009 (oral), vehicle: saline 106 % of control | dose: 400.0 mg/kg/injection, schedule: Q01DX009 (ip), vehicle: saline 100 % of control | dose: 400.0 mg/kg/injection, schedule: Q01DX009 (oral), vehicle: saline 93 % of control | dose: 800.0 mg/kg/injection, schedule: Q01DX009 (ip), vehicle: saline 115 % of control | dose: 800.0 mg/kg/injection, schedule: Q01DX009 (oral), vehicle: saline 97 % of control

O=C(NCCCN1CCN(CCCNC(=O)c2cccnc2)CC1)c1cccnc1
inactive: dose: 6.25 mg/kg/injection, schedule: Q01DX009 (ip), vehicle: saline 92 % of control | dose: 12.5 mg/kg/injection, schedule: Q01DX009 (ip), vehicle: saline 93 % of control | [3] 97 % of control | [4] 101 % of control | [5] 109 % of control | [2] 100 % of control | dose: 225.0 mg/kg/injection, schedule: Q01DX009 (ip), vehicle: saline 109 % of control

CCCCCCCCN1CCCC(OC(=O)N(C)C)C1 (stereo not drawn)
inactive: dose: 25.0 mg/kg/injection, schedule: Q04DX002 (ip), vehicle: saline 106 % of control | dose: 50.0 mg/kg/injection, schedule: Q04DX002 (ip), vehicle: saline 95 % of control | [1] 112 % of control

NC(=O)C1=Cc2cc(Cl)cc(Cl)c2OC1
inactive: [6] 93 % of control | dose: 200.0 mg/kg/injection, schedule: Q01DX009 (ip), vehicle: saline with Tween-80 93 % of control | dose: 400.0 mg/kg/injection, schedule: Q01DX009 (ip), vehicle: saline with Tween-80 98 % of control

N#C/C(=C\C=C\c1ccccc1)C(=O)O
inactive: dose: 12.5 mg/kg/injection, schedule: Q04DX003 (ip), vehicle: Klucel (hydroxypropylcellulose) (HPC) 96 % of control | dose: 25.0 mg/kg/injection, schedule: Q04DX003 (ip), vehicle: Klucel (hydroxypropylcellulose) (HPC) 107 % of control | dose: 50.0 mg/kg/injection, schedule: Q04DX003 (ip), vehicle: Klucel (hydroxypropylcellulose) (HPC) 96 % of control | dose: 100.0 mg/kg/injection, schedule: Q04DX003 (ip), vehicle: Klucel (hydroxypropylcellulose) (HPC) 94 % of control

COC1=CC2C3=CC(C)C4C(=O)OC(=O)C4C3C1C1C(=O)OC(=O)C21 (stereo not drawn)
inactive: dose: 50.0 mg/kg/injection, schedule: Q01DX009 (ip), vehicle: saline with Tween-80 105 % of control | [6] 94 % of control
